Data taken from publication PMC6588697, “Lugdunin amplifies innate immune responses in the skin in synergy with host- and microbiota-derived factors” (Nature Communications, 2019).
No end group written: not given here.

What was measured:
S. aureus USA300 = assay: Antimicrobial testing (bactericidal, CFU) against S. aureus USA300; format: cell-based, Staphylococcus aureus; details: for S. aureus USA300 CFU normalized to untreated control (1.00): 3 h, mean of at least three experiments
Experimental: Fig. 5 Synergistic action of lugdunin and human antimicrobial peptides (AMPs) kills methicillin-resistant S. aureus (MRSA). a, c Logarithmically grown (3 × 10^6) S. aureus were incubated with indicated combinations of lugdunin and human AMPs in phosphate-buffered saline (PBS) containing 0.1% tryptic soy broth (TSB) at 37 °C orbital shaking (white bar, untreated; dark gray bars, AMP treatment; middle gray bars, lugdunin treatment; light gray bars, AMP and lugdunin combination treatment). After 3 h of incubation, several dilutions of the bacterial suspensions were plated onto TSB agar plates and incubated overnight at 37 °C. The next day S. aureus colony-forming units (CFUs) were counted. Each experiment was performed in triplicates. Data represent the percentage of CFU of at least three independent experiments normalized to the untreated control ± s.e.m. Significant differences to control treatments were analyzed by ordinary one-way analysis of variance (ANOVA) followed by Dunnett’s multiple comparisons test (*P < 0.05; **P < 0.01; ***P < 0.001; ****P < 0.0001). b Combination indices (CIs) were calculated using CompuSyn (ComboSyn Inc.) and indicated in median effect plots as a function of the bacteria fractions affected by the combinatorial peptide treatment. CI values of 1 indicate additive effects, whereas values <1 and >1 indicate synergistic and antagonistic effects, respectively. Source data are provided as a Source Data file TEXT PRINTED IN THE PICTURE: (a) DCD-1: S. aureus USA300, Lugdunin μM 0: 1.00 (DCD-1 μM: 0); S. aureus USA300, Lugdunin μM 1: 1.08 (DCD-1 μM: 0); S. aureus USA300, Lugdunin μM 2: 1.11 (DCD-1 μM: 0); S. aureus USA300, Lugdunin μM 3: 0.97 (DCD-1 μM: 0); S. aureus USA300, Lugdunin μM 0: 1.06 (DCD-1 μM: 1); S. aureus USA300, Lugdunin μM 1: 0.91 (DCD-1 μM: 1); S. aureus USA300, Lugdunin μM 2: 0.85 (DCD-1 μM: 1); S. aureus USA300, Lugdunin μM 3: 0.60 (DCD-1 μM: 1); S. aureus USA300, Lugdunin μM 0: 1.19 (DCD-1 μM: 2); S. aureus USA300, Lugdunin μM 1: 0.84 (DCD-1 μM: 2); S. aureus USA300, Lugdunin μM 2: 0.43 (DCD-1 μM: 2); S. aureus USA300, Lugdunin μM 3: 0.21 (DCD-1 μM: 2) | (a) DCD-1L: S. aureus USA300, Lugdunin μM 0: 1.00 (DCD-1L μM: 0); S. aureus USA300, Lugdunin μM 1: 1.08 (DCD-1L μM: 0); S. aureus USA300, Lugdunin μM 2: 1.11 (DCD-1L μM: 0); S. aureus USA300, Lugdunin μM 3: 0.97 (DCD-1L μM: 0); S. aureus USA300, Lugdunin μM 0: 1.13 (DCD-1L μM: 1); S. aureus USA300, Lugdunin μM 1: 0.98 (DCD-1L μM: 1); S. aureus USA300, Lugdunin μM 2: 0.68 (DCD-1L μM: 1); S. aureus USA300, Lugdunin μM 3: 0.07 (DCD-1L μM: 1); S. aureus USA300, Lugdunin μM 0: 1.37 (DCD-1L μM: 2); S. aureus USA300, Lugdunin μM 1: 0.60 (DCD-1L μM: 2); S. aureus USA300, Lugdunin μM 2: 0.42 (DCD-1L μM: 2); S. aureus USA300, Lugdunin μM 3: 0.02 (DCD-1L μM: 2) | (a) IL-37: S. aureus USA300, Lugdunin μM 0: 1.00 (IL-37 μM: 0); S. aureus USA300, Lugdunin μM 1: 1.08 (IL-37 μM: 0); S. aureus USA300, Lugdunin μM 2: 1.11 (IL-37 μM: 0); S. aureus USA300, Lugdunin μM 3: 0.97 (IL-37 μM: 0); S. aureus USA300, Lugdunin μM 0: 1.86 (IL-37 μM: 1); S. aureus USA300, Lugdunin μM 1: 1.27 (IL-37 μM: 1); S. aureus USA300, Lugdunin μM 2: 1.23 (IL-37 μM: 1); S. aureus USA300, Lugdunin μM 3: 1.90 (IL-37 μM: 1); S. aureus USA300, Lugdunin μM 0: 2.49 (IL-37 μM: 2); S. aureus USA300, Lugdunin μM 1: 1.28 (IL-37 μM: 2); S. aureus USA300, Lugdunin μM 2: 0.89 (IL-37 μM: 2); S. aureus USA300, Lugdunin μM 3: 0.38 (IL-37 μM: 2) DOUBTS OF THE COPYIST ABOUT THIS PICTURE: Panel a, third matrix: the row label reads IL-37, but it may be LL-37, as printed in panels b and c. / Panel a: the picture prints no measure for the matrix numbers, only the colour scale 'Growth – Killing, S. aureus USA300'. Each cell is a combination of Lugdunin (column, μM) with the peptide (row, μM). / Panel a: rows and columns at 0 μM are a single agent or the untreated control. […]

P. aeruginosa = assay: Antimicrobial testing (CFU) against P. aeruginosa; format: cell-based, Pseudomonas aeruginosa; details: 3 h
E. faecalis = assay: Antimicrobial testing (CFU) against E. faecalis; format: cell-based, Enterococcus faecalis; details: 3 h, mean
[1] = single peptide 0.4 µM, PBS + 0.1% TSB, 37 °C
[2] = single peptide 1 µM, PBS + 0.1% TSB, 37 °C, mean of at least three experiments

Substance | S. aureus USA300 CFU normalized to untreated control (1.00) (S. aureus USA300; [1]) | S. aureus USA300 CFU normalized to untreated control (1.00) (S. aureus USA300; single peptide 0.6 µM) | S. aureus USA300 CFU normalized to untreated control (1.00) (S. aureus USA300; single peptide 0.8 µM) | S. aureus USA300 CFU normalized to untreated control (1.00) (S. aureus USA300; single peptide 1 µM) | S. aureus USA300 CFU normalized to untreated control (1.00) (S. aureus USA300; single peptide 2 µM) | P. aeruginosa CFU normalized to untreated control (1,00) (P. aeruginosa; [2]) | P. aeruginosa CFU normalized to untreated control (1,00) (P. aeruginosa; single peptide 2 µM, mean) | P. aeruginosa CFU normalized to untreated control (1,00) (P. aeruginosa; single peptide 3 µM, mean) | E. faecalis CFU normalized to untreated control (1,00) (E. faecalis; single peptide 1 µM) | E. faecalis CFU normalized to untreated control (1,00) (E. faecalis; single peptide 2 µM) | E. faecalis CFU normalized to untreated control (1,00) (E. faecalis; single peptide 3 µM) | antimicrobial activity on co-incubation with human AMPs (in words) (S. aureus USA300; S. aureus USA300, text to Supp Figs 5, 6)
IASKFLCTPGCAKTGSFNSYCC (also: bicyclic or more (positions not given here)) [Gallidermin, bacteriocin isolated from Staphylococcus gallinarum] | 0,84 | 0,91 | 0,74 | – | – | – | – | – | – | – | – | –
ITSISLCTPGCKTGALMGCNMKTATCHCSIHVSK (not fully specified (bridges); also: lanthionine rings, places not given here) [Nisin, bacteriocin of Lactococcus lactis, purchased from Sigma] | 1,31 | 1,49 | 1,49 | – | – | – | – | – | – | – | – | –
LLGDFFRKSKEKIGKEFKRIVQRIKDFLRNLVPRTES [LL-37, human cathelicidin AMP] | – | – | – | 1,86 | 2,49 | – | – | – | – | – | – | –
Lugdunin | – | – | – | 1,08 | 1,11 | 1,34 | 1,01 | 1,41 | 1,21 | 1,27 | 0,99 | –
MEAVKEKNELFDLDVKVNAKESNDSGAEPRIASKFLCTPGCAKTGSFNSYCC [Pro-Gallidermin, non-bactericidal pro-form of gallidermin] | 1,34 | 1,61 | 1,30 | – | – | – | – | – | – | – | – | did not lead to antimicrobial activity
SSLLEKGLDGAKKAVGGLGKLGKDAVEDLESVGKGAVHDVKDVLDSV [DCD-1, dermcidin-derived human AMP of eccrine sweat glands] | – | – | – | 1,06 | 1,19 | 0,93 | 1,21 | – | 1,48 | 1,58 | – | –
SSLLEKGLDGAKKAVGGLGKLGKDAVEDLESVGKGAVHDVKDVLDSVL [DCD-1L, dermcidin-derived human AMP of eccrine sweat glands] | – | – | – | 1,13 | – | 1,39 | 1,19 | – | 1,40 | 1,55 | – | –
